Laboratory results reported in patent US12692253B2, “Antimicrobial compounds and methods” (Curza Global, LLC, priority 2019, dated 2026).

How the values were obtained:
[1] = tested on: E. coli S30 extract (bacterial protein synthesis); experiment: E. coli S30 extract coupled transcription-translation luciferase assay (inhibition of bacterial protein synthesis); format: biochemical; details: class by IC50 or % inhibition @ 1 μM, read-out: S30 IC50 (μM/% inhib.)
Procedure, shortened: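 Luciferase luminescence quantified inhibition of protein synthesis relative to water controls, with no-DNA reactions giving background. Compounds in 2-fold serial dilution (8 levels) were incubated 1 hour at 37 °C with E. coli S30 extract, amino acids and pBESTluc plasmid, then chilled to stop.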

[2] = target: Rabbit Reticulocyte Lysate (eukaryotic protein synthesis); experiment: Rabbit reticulocyte lysate luciferase assay (inhibition of eukaryotic protein synthesis); format: biochemical; details: class by IC50 or % inhibition @ 1 μM, read-out: Rabbit reticulocyte IC50 (μM/% inhib.)
Procedure, shortened: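 Percent inhibition calculated against water-only controls from luminescence; background set by lysate lacking RNA. Compounds, 8-point 2-fold titration, incubated 90 minutes at 30° C with nuclease-treated rabbit reticulocyte lysate programmed with luciferase control RNA plus complete amino acids.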

[3] = tested on: A. baumannn (Ab); experiment: Broth microdilution minimum inhibitory concentration (MIC), CLSI; format: cell-based; details: for MIC: Acinetobacter baumannii, read-out: Ab + bicarb MIC
Procedure, shortened: (§1)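 Two-fold serial dilutions in CAMHB, optionally with sodium bicarbonate (6.25 or 25 mM final) or heat-inactivated human serum (0-50%), 8 concentrations, triplicate. Inoculum 5×10^4 CFU/well from log-phase cultures grown at 35±2 °C to 0.5 McFarland.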

[4] = tested on: E. coli (Ec); experiment: as above; format: cell-based; details: growth medium supplemented with sodium bicarbonate; for MIC: Escherichia coli, read-out: E. coli + bicarb MIC
Procedure, shortened: as §1

[5] = tested on: E. faecalis (Ef); experiment: as above; format: cell-based; details: growth medium supplemented with sodium bicarbonate; for MIC: Enterococcus faecalis, read-out: Ef + bicarb MIC
Procedure, shortened: as §1

[6] = tested on: P. aeruginosa (Pa); experiment: as above; format: cell-based; details: growth medium supplemented with sodium bicarbonate; for MIC: Pseudomonas aeruginosa, read-out: Pa MIC + bicarb
Procedure, shortened: as §1

[7] = tested on: S. aureus (Sa); experiment: as above; format: cell-based; details: growth medium supplemented with sodium bicarbonate; for MIC: Staphylococcus aureus, read-out: Sa + bicarb MIC
Procedure, shortened: as §1

SMILES | IC50 [1] | IC50 [2] | MIC [3] | MIC [4] | MIC [5] | MIC [6] | MIC [7] | Ab + bicarb MIC ([3]; A. baumannii, growth medium supplemented with sodium bicarbonate) | E. coli + bicarb MIC [4] | Ef + bicarb MIC [5] | Pa MIC + bicarb [6] | Sa + bicarb MIC [7]
CC(C)(N)C(=O)N1CCN(C(=O)Nc2ccn(-c3ccc(CN4CCC5(CC4)CC(N)C5)cc3)c(=O)n2)CC1 [Compound 33] | < 0.5 µM | ≥ 1 µM | 8 to 32 µg/mL | < 8 µg/mL | < 8 µg/mL | 8 to 32 µg/mL | < 8 µg/mL |  |  |  |  | 
CC(C)(N)C(=O)N1CCN(C(=O)Nc2ccn(-c3ccc(CN4CC5(CC(N)C5)C4)cc3)c(=O)n2)CC1 [Compound 34] | < 0.5 µM | ≥ 1 µM | > 32 µg/mL | < 8 µg/mL | 8 to 32 µg/mL | > 32 µg/mL | < 8 µg/mL |  |  |  |  | 
C[C@@](N)(CO)C(=O)N1CCN(C(=O)Nc2ccn(-c3ccc(CN4C[C@@H]5[C@@H](N)[C@@H]5C4)cc3)c(=O)n2)CC1 [Compound 40] | < 0.5 µM | ≥ 1 µM | > 32 µg/mL | < 8 µg/mL | < 8 µg/mL | > 32 µg/mL | < 8 µg/mL |  |  |  |  | 
NCC[C@H](N)C(=O)N1CCN(C(=O)Nc2ccn(-c3ccc(CN4C[C@@H]5[C@@H](N)[C@@H]5C4)cc3)c(=O)n2)CC1 [Compound 41] | ≥ 1 µM | ≥ 1 µM | > 32 µg/mL | > 32 µg/mL | > 32 µg/mL | > 32 µg/mL | > 32 µg/mL |  |  |  |  | 
CC(C)(N)C(=O)N1CCN(C(=O)Nc2ccn(-c3ccc(CN4CC5CC(N)C5C4)cc3)c(=O)n2)CC1 (stereo not shown) [Compound 42] | < 0.5 µM | ≥ 1 µM | > 32 µg/mL | < 8 µg/mL | 8 to 32 µg/mL | > 32 µg/mL | 8 to 32 µg/mL |  |  |  |  | 
C[C@@H]1CN(C(=O)Nc2ccn(-c3ccc(CN4C[C@@H]5[C@@H](N)[C@@H]5C4)cc3)c(=O)n2)CCN1C(=O)[C@@](C)(N)CO [Compound 45] | < 0.5 µM | ≥ 1 µM | > 32 µg/mL | < 8 µg/mL | < 8 µg/mL | 8 to 32 µg/mL | < 8 µg/mL |  |  |  |  | 
CC(C)(N)CC1CCN(C(=O)Nc2ccn(-c3ccc(CN4C[C@@H]5[C@@H](N)[C@@H]5C4)cc3)c(=O)n2)CC1 [Compound 48] | 0.5 to 1 µM | ≥ 1 µM | > 32 µg/mL | < 8 µg/mL | 8 to 32 µg/mL | > 32 µg/mL | < 8 µg/mL |  |  |  |  | 
NC1CC2(CCN(C(=O)Nc3ccn(-c4ccc(CN5C[C@@H]6[C@@H](N)[C@@H]6C5)cc4)c(=O)n3)CC2)C1 [Compound 49] | < 0.5 µM | ≥ 1 µM | > 32 µg/mL | < 8 µg/mL | 8 to 32 µg/mL | > 32 µg/mL | < 8 µg/mL |  |  |  |  | 
COC[C@@](C)(N)C(=O)N1CCN(C(=O)Nc2ccn(-c3ccc(CN4C[C@@H]5[C@@H](N)[C@@H]5C4)cc3)c(=O)n2)CC1 [Compound 53] | 0.5 to 1 µM | ≥ 1 µM | > 32 µg/mL | < 8 µg/mL | < 8 µg/mL | > 32 µg/mL | < 8 µg/mL |  |  |  |  | 
CC(C)(N)C1CN(C(=O)Nc2ccn(-c3ccc(CN4C[C@@H]5[C@@H](N)[C@@H]5C4)cc3)c(=O)n2)CCO1 (stereo partly shown) [Compound 56] | ≥ 1 µM | ≥ 1 µM | > 32 µg/mL | 8 to 32 µg/mL | > 32 µg/mL | > 32 µg/mL | > 32 µg/mL |  |  |  |  | 
CC(C)(N)C(=O)N1CCN(C(=O)Nc2ccn(-c3ccc(CN4C5CCC4CC(N)C5)cc3)c(=O)n2)CC1 (stereo not shown) [Compound 58] | < 0.5 µM | ≥ 1 µM | > 32 µg/mL | < 8 µg/mL | 8 to 32 µg/mL | > 32 µg/mL | < 8 µg/mL |  |  |  |  | 
CC(C)(N)C(=O)N1CCN(C(=O)Nc2ccn(-c3ccc(CN4C5CCC4CC(N)C5)cc3)c(=O)n2)CC1 (stereo not shown) [Compound 59] | < 0.5 µM | ≥ 1 µM |  |  |  |  |  | + (An MIC (μg/mL) value that is 32 μg/mL or greater) | +++ (An MIC value (μg/mL) that is less than 8 μg/mL) | +++ (An MIC value (μg/mL) that is less than 8 μg/mL) | + (An MIC (μg/mL) value that is 32 μg/mL or greater) | +++ (An MIC value (μg/mL) that is less than 8 μg/mL)
CC(C)(N)C(=O)N1CCN(C(=O)Nc2ccn(-c3ccc(CN4CC5(CCC5N)C4)cc3)c(=O)n2)CC1 (stereo not shown) [Compound 60] | < 0.5 µM | ≥ 1 µM | > 32 µg/mL | < 8 µg/mL | > 32 µg/mL | > 32 µg/mL | < 8 µg/mL |  |  |  |  | 
N[C@@H]1[C@H]2CN(Cc3ccc(-n4ccc(NC(=O)N5CCC6(CC5)CNC6)nc4=O)cc3)C[C@@H]12 [Compound 61] | ≥ 1 µM | ≥ 1 µM | > 32 µg/mL | 8 to 32 µg/mL | > 32 µg/mL | > 32 µg/mL | > 32 µg/mL |  |  |  |  | 
N[C@@H]1[C@H]2CN(Cc3ccc(-n4ccc(NC(=O)N5CCC6(CCNCC6)CC5)nc4=O)cc3)C[C@@H]12 [Compound 62] | ≥ 1 µM | ≥ 1 µM | > 32 µg/mL | < 8 µg/mL | 8 to 32 µg/mL | > 32 µg/mL | < 8 µg/mL |  |  |  |  | 
N[C@@H]1[C@H]2CN(Cc3ccc(-n4ccc(NC(=O)N5CCC6(CCNC6)C5)nc4=O)cc3)C[C@@H]12 (stereo partly shown) [Compound 63] | ≥ 1 µM | ≥ 1 µM | > 32 µg/mL | > 32 µg/mL | > 32 µg/mL | > 32 µg/mL | > 32 µg/mL |  |  |  |  | 
NC1CCC12CCN(C(=O)Nc1ccn(-c3ccc(CN4C[C@@H]5[C@@H](N)[C@@H]5C4)cc3)c(=O)n1)CC2 (stereo partly shown) [Compound 64] | ≥ 1 µM | ≥ 1 µM | > 32 µg/mL | 8 to 32 µg/mL | 8 to 32 µg/mL | > 32 µg/mL | 8 to 32 µg/mL |  |  |  |  | 
CC(C)(N)C(=O)N1CCN(C(=O)Nc2ccn(-c3ccc(CN4C[C@@H]5[C@@H](N)[C@@H]5C4)cc3)c(=O)n2)CC1 [Compound 65] | < 0.5 µM | ≥ 1 µM | 8 to 32 µg/mL | < 8 µg/mL | < 8 µg/mL | > 32 µg/mL | < 8 µg/mL |  |  |  |  | 
CC(C)(N)C(=O)N1CCN(C(=O)Nc2ccn(-c3ccc(CN4C[C@@H]5[C@@H](N)[C@@H]5[C@H]4CO)cc3)c(=O)n2)CC1 [Compound 66] | 0.5 to 1 µM | ≥ 1 µM | > 32 µg/mL | < 8 µg/mL | > 32 µg/mL | > 32 µg/mL | 8 to 32 µg/mL |  |  |  |  | 
CC(c1ccc(-n2ccc(NC(=O)N3CCN(C(=O)C(C)(C)N)CC3)nc2=O)cc1)N1C[C@@H]2[C@@H](N)[C@@H]2C1 (stereo partly shown) [Compound 67] | < 0.5 µM | ≥ 1 µM | > 32 µg/mL | < 8 µg/mL | < 8 µg/mL | > 32 µg/mL | < 8 µg/mL |  |  |  |  | 
CC(C)(N)C(=O)N1CCN(C(=O)Nc2ccn(-c3ccc(CN4C[C@@H]5[C@@H](CN)[C@@H]5C4)cc3)c(=O)n2)CC1 [Compound 68] | < 0.5 µM | ≥ 1 µM | > 32 µg/mL | < 8 µg/mL | > 32 µg/mL | > 32 µg/mL | < 8 µg/mL |  |  |  |  | 
CC(N)[C@H]1[C@@H]2CN(Cc3ccc(-n4ccc(NC(=O)N5CCN(C(=O)C(C)(C)N)CC5)nc4=O)cc3)C[C@@H]21 (stereo partly shown) [Compound 73] | < 0.5 µM | ≥ 1 µM | > 32 µg/mL | < 8 µg/mL | 8 to 32 µg/mL | > 32 µg/mL | < 8 µg/mL |  |  |  |  | 
